Reference: PMC3894558, “Chemical signatures and new drug targets for gametocytocidal drug development” (Scientific Reports, 2014)
Read-outs that look alike come from different tables or passages of the source.

System: P. falciparum 3D7 gametocytes
Assay: alamarBlue gametocyte viability assay, strain 3D7
Type: cell-based, Plasmodium falciparum
Conditions: Malaria Box; for Max Resp: DMSO set at 0%, 100 nM epoxomicin set at -100%; for Curve Class / IC50: stages III-V 3D7 gametocytes; for IC50: 11 concentrations, 1:3 dilution; call rule not given here

| SMILES | Max Resp [%] | Curve Class | IC50 (read-out: IC50) [µM] | IC50 |
| --- | --- | --- | --- | --- |
| COc1ccc(C(=O)NC(c2ccc(Cl)cc2Cl)c2cc(Cl)c3cccnc3c2O)cc1 (stereo not drawn) [MMV666054] | -125 | -2.1 | 16.6 | – |
| O=[N+]([O-])c1ccc(C=NNc2nc3ccccc3[nH]2)cc1 [MMV666607] | -57 | -2.2 | 29.6 | – |
| Cn1c(C(=O)c2cccc3ccccc23)nc2ccccc21 [MMV665824] | -53 | -2.4 | – | Inactive |
| O=C(Nc1ccc(Cl)cc1)N1CCN(c2ccc3nncn3n2)CC1 [MMV665917] | -1 | 4 | – | Inactive |
| O=C1c2ccc3c4c(ccc(c24)C(=O)N1CCCCO)C(=O)N(CCCCO)C3=O [MMV009085] | -71 | -2.2 | 14.8 | – |
| O=C(NC1CCN(Cc2ccccc2)CC1)c1cc(-c2cccnc2)nc2ccc(Cl)cc12 [MMV020490] | -61 | -2.2 | 29.6 | – |
| CCOc1cc2c(cc1OCC)C(c1cc(C)c(O)c(C)c1)NCC2.Cl (stereo not drawn) [MMV000483] | -82 | -1.1 | 5.26 | – |
| CN1CCN(c2nc(Nc3ccc(O)cc3)nc3ccccc23)CC1.Cl [MMV000986] | -93 | -1.1 | 6.62 | – |
| Cc1ccc(C(=O)c2oc3ccc4c(C)cc(=O)oc4c3c2C)cc1 [MMV086103] | 0 | 4 | – | Inactive |
| COc1ccccc1C(=O)ON=C(N)Cc1cccc2ccccc12 [MMV666686] | -50 | -2.2 | – | Inactive |
| COc1cc2c(cc1OC)C1=NNC(=O)C1=NC(C)(C)C2 [MMV084940] | -133 | -1.1 | 1.32 | – |
| O=c1nc(C=Cc2ccc(Br)cc2)oc2ccccc12 [MMV666599] | 4 | 4 | – | Inactive |
| CCc1c(C)c(=N)c2ccccc2n1C.I [MMV006278] | -52 | -2.2 | – | Inactive |
| COc1ccc(CNC(=O)c2cc3c(=O)n4ccccc4nc3n(CCc3ccccc3)c2=N)cc1 [MMV665881] | -29 | 4 | – | Inactive |
| CCOC(=O)C1=C(C)N=c2sc(=Cc3ccccc3O)c(=O)n2C1c1ccc(OC)c2ccccc12 (stereo not drawn) [MMV666604] | -68 | -1.2 | 7.43 | – |
| Cl.Cn1c(=O)n(C)c2cc(CNCCNc3ccnc4cc(Cl)ccc34)ccc21 [MMV665875] | -41 | -1.2 | 0.372 | – |
| Cc1ccc(-c2cc(C(=O)Nc3ccc(S(=O)(=O)N4CCCCC4)cc3)[nH]n2)c(O)c1 [MMV665906] | -61 | -1.2 | 5.26 | – |
| Cc1nc2ccccc2c(O)c1CC=C(Cl)Cl [MMV665994] | 5 | 4 | – | Inactive |
| CN(C)c1ccc(N=Cc2ccc(N3CCOCC3)cc2)cc1 [MMV073843] | -98 | -1.1 | 2.35 | – |
| CC(O)(c1ccc(Cl)cc1)C(CN1CCCCC1)c1ccccc1.Cl (stereo not drawn) [MMV000620] | -78 | -2.2 | 9.35 | – |
| CCCCC(O)(c1ccc(Cl)cc1)C(CN1CCOCC1)c1ccc(Cl)cc1.Cl (stereo not drawn) [MMV000619] | -51 | -2.2 | – | Inactive |
| COCCNC(=O)c1ccc(OC2CCN(Cc3ccc(F)c(F)c3)CC2)c(Cl)c1 [MMV666072] | 12 | 4 | – | Inactive |
| O=C(Nc1ccc(C23CC4CC(CC(c5ccccc5)(C4)C2)C3)cc1)c1cccs1 [MMV007574] | 12 | 4 | – | Inactive |
| Cc1cc(Nc2ccc3ccccc3c2)n2ncnc2n1 [MMV011099] | -5 | 4 | – | Inactive |

| SMILES | Max Resp [%] | Curve Class | IC50 (read-out: IC50) [µM] | IC50 |
| --- | --- | --- | --- | --- |
| COc1ccc(NC(=O)C2c3ccccc3C(=O)N(CC(C)C)C2c2cccs2)cc1Cl (stereo not drawn) [MMV000642] | -75 | -2.2 | 9.35 | – |
| CCN(CC)CCn1c(=N)n(CC(O)c2ccc(Cl)c(Cl)c2)c2ccccc21.Cl (stereo not drawn) [MMV000248] | -99 | -1.1 | 1.48 | – |
| O=C(NC1CCCC1)c1ccc(N2CCC(NCc3cccc(C(F)(F)F)c3)CC2)cc1 [MMV666070] | -47 | -2.2 | – | Inactive |
| O=C(CCl)NCCOc1ccc(Cl)cc1Cl [MMV665927] | -88 | -2.1 | 16.6 | – |
| N#Cc1nc(Cc2cccc3ccccc23)oc1N1CCN(C(c2ccccc2)c2ccccc2)CC1 [MMV396726] | -1 | 4 | – | Inactive |
| COCCN(C(=O)Cc1cccs1)C(C(=O)NCc1ccc(OC)cc1)c1ccc(C(C)C)cc1 (stereo not drawn) [MMV666105] | -42 | -2.2 | – | Inactive |
| COc1cccc(C(=O)NC(c2ccc(C)cc2)c2cc(Cl)c3cccnc3c2O)c1 (stereo not drawn) [MMV665969] | -76 | -2.2 | 11.8 | – |
| COC(=O)c1ccc(Cl)c2c1C1C=CCC1C(c1cccc3ccccc13)N2 (stereo not drawn) [MMV667489] | 1 | 4 | – | Inactive |
| O=C(Nc1ccc(N2CCN(Cc3ccccc3)CC2)cc1)c1cccs1.O=C(O)C(F)(F)F [MMV019670] | 13 | 4 | – | Inactive |
| COc1ccc(NC(=O)C2c3ccccc3C(=O)N(CC(C)C)C2c2cccs2)cc1 (stereo not drawn) [MMV000662] | -81 | -1.1 | 4.18 | – |
| COc1ccc(-c2cc3c(SCC(=O)Nc4cc(C(F)(F)F)ccc4Cl)nccn3n2)cc1 [MMV396679] | 0 | 4 | – | Inactive |
| Cc1ccccc1OCCSc1nc2ccc(NC(=O)c3ccccc3)cc2s1 [MMV007577] | 18 | 4 | – | Inactive |
| CN1CCN(c2ccc(Nc3c4ccccc4nc4ccccc34)cc2)CC1 [MMV006172] | -98 | -1.1 | 1.48 | – |
| CSC1=NC(=Nc2c(C)cccc2C)C2(CCC(C(C)(C)C)CC2)N1c1ccc(Cl)cc1 (stereo not drawn) [MMV666596] | 14 | 4 | – | Inactive |
| COc1cc(OC)cc(N2C(=O)N(Cc3ccc(C(C)(C)C)cc3)c3ccccc3S2(=O)=O)c1 [MMV008173] | 0 | 4 | – | Inactive |
| CCCc1c(C)nc2ccccc2c1O [MMV666081] | 23 | 4 | – | Inactive |
| CN(N=O)C1=C(NC2CCCCC2)C(=O)c2ccccc2C1=O [MMV667492] | -59 | -1.2 | 2.35 | – |
| Cc1[nH]c(-c2ccc(F)cc2)cc1C(=O)NC1CCN(Cc2ccccc2)CC1 [MMV019738] | -61 | -2.2 | 29.6 | – |
| CCOc1cc(Cl)c(C(C)NC(=O)c2cccc(OC)c2)cc1OCC (stereo not drawn) [MMV665803] | -58 | -2.2 | 29.6 | – |
| COc1ccc2nc(N)nc(C)c2c1 [MMV665897] | -66 | -2.2 | 29.6 | – |
| Cc1cc(N2CCN(C3CCCC3)CC2)n2c(nc3ccccc32)c1C#N [MMV006706] | -18 | 4 | – | Inactive |
| Cc1ccc(N2C3c4ccccc4N(S(=O)(=O)c4ccc(C)cc4)C2c2ccccc2N3S(=O)(=O)c2ccc(C)cc2)cc1 [MMV007160] | -3 | 4 | – | Inactive |
| Oc1ccc2ccccc2c1CNc1nc2ccccc2[nH]1 [MMV011832] | -67 | -2.2 | 29.6 | – |
